# Assay results: patent publication US20260224537A1, “METHODS AND COMPOSITIONS FOR TREATING GLUCOCORTICOID-MEDIATED DISEASES” (SPARROW PHARMACEUTICALS, INC., priority 2023, published 2026)
# Entries after “also recorded” stand apart in the source; their conditions may differ.
# Assays:
# [1] = test system: patients with polymyalgia rheumatica (PMR); test: Clinical trial in PMR: acute phase markers CRP, ESR, fibrinogen; assay type: in vivo, human; settings: change from baseline after 2 weeks daily treatment
# Procedure: (§1) In an ongoing clinical trial, patients with polymyalgia rheumatica (PMR), who receive prednisolone 10 mg daily for at least 7 days prior to Day 1, are in remission or have low disease activity, and who meet the inclusion and exclusion criteria (Table 1), enter a 4-week treatment period.
# (§2) From Day 1 to Week 2, participants continue to receive prednisolone 10 mg and placebo for SPI-62, each daily. From Week 2 to Week 4, participants receive prednisolone, at a dose or randomized doses assigned per cohort, and SPI-62 6 mg, each daily. The order of treatments are not randomized due to the long pharmacological half-life of SPI-62, which is understood to be approximately 4-6 weeks based on data collected up to 2-2.5 weeks after cessation of SPI-62 administration in prior clinical trials. Participants are blinded to the order of treatments. Participants are enrolled in cohorts of approximately 12. • During Cohort 1, 12 participants received prednisolone 10 mg with SPI-62 6 mg. Two participants were erroneously dosed with SPI-62 on Day 1. […] Two participants' prednisolone dose was increased to 15 mg prior to Week 4 following adverse events of PMVR aggravated. […]
# Criterion 2—Acute phase markers C-reactive protein (CRP) and erythrocyte sedimentation rate (ESR), which are standard parameters clinicians use to quantitate systemic inflammation in PMR. […]
# [2] = test system: patients with diabetic peripheral neuropathy; settings: SPI-62 without prednisolone, at 6 weeks, prior trials; cited from earlier work
# hepatic HSD-1 = target: T1, hepatic HSD-1 (Homo sapiens, UniProt P28845); test: Urinary ratio (tetrahydrocortisol+allotetrahydrocortisol)/tetrahydrocortisone, biomarker of hepatic HSD-1 activity; assay type: in vivo
# T1 construct: confirm the pharmacological effect of SPI-62 on hepatic HSD-1 activity; from tissue; host or cells: liver (hepatocytes) of trial subjects, in vivo; read out through urinary steroid metabolites
# Procedure: Data from all cohorts were analyzed together to confirm the pharmacological effect of SPI-62 on hepatic HSD-1 activity. In hepatocytes, 5- and 3-steroid reductases, the latter a liver-specific enzyme, convert cortisol and cortisone to tetrahydro metabolites which are excreted in urine. The urinary ratio (tetrahydrocortisol+allotetrahydrocortisol)/tetrahydrocortisone is an accepted biomarker of hepatic HSD-1 activity. Morning spot urine samples were collected at Baseline (BL), after 2 weeks of prednisolone 10 mg treatment (PRL), after 2 weeks of prednisolone 10-30 mg+clofutriben 6 mg treatment (PRL CLO6), and after 4 weeks washout following the last clofutriben dose (WO). […] The similarity between BL and PBO is an example of the repeatability of the HSD-1 ratio in spot urine samples.
# [3] = test system: patients with polymyalgia rheumatica (PMR); test: Clinical trial in PMR: assessment of prednisolone toxicity (bone turnover, lipids, glycemic control, coagulation, ECG heart rate, HPA axis); assay type: in vivo, human
# Procedure: as §1
# (§3) From Day 1 to Week 2, participants continue to receive prednisolone 10 mg and placebo for SPI-62, each daily. From Week 2 to Week 4, participants receive prednisolone, at a dose or randomized doses assigned per cohort, and SPI-62 6 mg, each daily. The order of treatments are not randomized due to the long pharmacological half-life of SPI-62, which is understood to be approximately 4-6 weeks based on data collected up to 2-2.5 weeks after cessation of SPI-62 administration in prior clinical trials. Participants are blinded to the order of treatments. Participants are enrolled in cohorts of approximately 12. • During Cohort 1, 12 participants received prednisolone 10 mg with SPI-62 6 mg. Two participants were erroneously dosed with SPI-62 on Day 1. […] Two participants' prednisolone dose was increased to 15 mg prior to Week 4 following adverse events of PMVR aggravated. Those two participants' data are represented in the Figures in the PRL15 CLO6 regimen. […] Those two participants' data are represented in the Figures only in the PRL10 regimen. • During Cohort 2, 12 participants received prednisolone 15 mg (50% dose adjustment) with SPI-62 6 mg. All also received prednisolone 10 mg with placebo for SPI-62. • During Cohort 3, 11 participants received prednisolone 20 mg (100% dose adjustment from Cohort 1) with clofutriben (i.e., SPI-62) 6 mg. All also received prednisolone 10 mg with placebo for SPI-62. […] That participant's data are represented in the Figures in the PRL10 and PRL10 CLO6 regimens. • During Cohort 4, 11 participants received prednisolone 30 mg (100% dose adjustment from Cohort 2) with clofutriben (i.e., SPI-62) 6 mg. • Two additional participants dropped out of the trial before they received clofutriben. Those participants' data are represented in the Figures in the PRL10 regimen.
# FIGS. 1-26 compare the change from baseline during two weeks of treatment with 10 mg prednisolone and placebo (PRL 10), 10 mg prednisolone and 6 mg clofutriben (PRL10 CLO6), 15 mg prednisolone and 6 mg clofutriben (PRL15 CLO6), 20 mg prednisolone and 6 mg clofutriben (PRL20 CLO6), and 30 mg prednisolone and 6 mg clofutriben (PRL30 CLO6). The central horizontal line of each diamond represents the mean of the observed data. The top and bottom vertices represent the 95% confidence interval of the mean. The top and bottom ‘overlap lines’ would indicate statistically significant difference between groups under assumptions of normal data distribution, equal variances, and lack of covariance with baseline value. As one or more of those assumptions is violated for many of the datasets, statistical significance should not be inferred based on the overlap lines in FIGS. 1-26.
# Assessment of prednisolone toxicity focused first on bone turnover biomarkers, which were expected to be the most sensitive based on published evidence of substantial changes within a few days of glucocorticoid administration that correlated with hepatic HSD-1 activity. SPI-62 was associated with changes consistent with an anti-GIOP phenotype, i.e., increases of the bone formation biomarkers OC and P1NP (FIG. 12), and decreases of the bone resorption biomarker CTX (FIG. 13).
# Whether GC-associated HDL increase should be considered GC toxicity is not clear. […] About half of the participants (represented by colored circles) were on cholesterol-lowering agents, while no participants received any additional triglyceride lowering agents. The improvements in cholesterol were attributed mainly to a decrease in HDL, representing a reversal of the HDL-increasing effect of GC by clofutriben. […]
# [4] = test system: patients with polymyalgia rheumatica (PMR); test: Clinical trial in PMR: 13-plex cytokine panel; assay type: in vivo, human; settings: SPI-62 6 mg co-administered with prednisolone; 2 weeks
# Procedure: as §1
# From Day 1 to Week 2, participants continue to receive prednisolone 10 mg and placebo for SPI-62, each daily. From Week 2 to Week 4, participants receive prednisolone, at a dose or randomized doses assigned per cohort, and SPI-62 6 mg, each daily. The order of treatments are not randomized due to the long pharmacological half-life of SPI-62, which is understood to be approximately 4-6 weeks based on data collected up to 2-2.5 weeks after cessation of SPI-62 administration in prior clinical trials. Participants are blinded to the order of treatments. Participants are enrolled in cohorts of approximately 12. • During Cohort 1, 12 participants received prednisolone 10 mg with SPI-62 6 mg. Two participants were erroneously dosed with SPI-62 on Day 1. […] Two participants' prednisolone dose was increased to 15 mg prior to Week 4 following adverse events of PMVR aggravated. Those two participants' data are represented in the Figures in the PRL15 CLO6 regimen. […] Those two participants' data are represented in the Figures only in the PRL10 regimen. • During Cohort 2, 12 participants received prednisolone 15 mg (50% dose adjustment) with SPI-62 6 mg. All also received prednisolone 10 mg with placebo for SPI-62. • During Cohort 3, 11 participants received prednisolone 20 mg (100% dose adjustment from Cohort 1) with clofutriben (i.e., SPI-62) 6 mg. All also received prednisolone 10 mg with placebo for SPI-62. […] That participant's data are represented in the Figures in the PRL10 and PRL10 CLO6 regimens. • During Cohort 4, 11 participants received prednisolone 30 mg (100% dose adjustment from Cohort 2) with clofutriben (i.e., SPI-62) 6 mg. • Two additional participants dropped out of the trial before they received clofutriben. Those participants' data are represented in the Figures in the PRL10 regimen. […]
# [5] = Prior clinical trials of SPI-62 (without glucocorticoids); settings: human, in vivo; based on data collected up to 2-2.5 weeks after cessation of SPI-62 administration in prior clinical trials; read-out: pharmacological half-life
# Procedure: From Day 1 to Week 2, participants continue to receive prednisolone 10 mg and placebo for SPI-62, each daily. From Week 2 to Week 4, participants receive prednisolone, at a dose or randomized doses assigned per cohort, and SPI-62 6 mg, each daily. The order of treatments are not randomized due to the long pharmacological half-life of SPI-62, which is understood to be approximately 4-6 weeks based on data collected up to 2-2.5 weeks after cessation of SPI-62 administration in prior clinical trials. Participants are blinded to the order of treatments. Participants are enrolled in cohorts of approximately 12. • During Cohort 1, 12 participants received prednisolone 10 mg with SPI-62 6 mg. Two participants were erroneously dosed with SPI-62 on Day 1. […] Two participants' prednisolone dose was increased to 15 mg prior to Week 4 following adverse events of PMVR aggravated. Those two participants' data are represented in the Figures in the PRL15 CLO6 regimen. […] Those two participants' data are represented in the Figures only in the PRL10 regimen. • During Cohort 2, 12 participants received prednisolone 15 mg (50% dose adjustment) with SPI-62 6 mg. All also received prednisolone 10 mg with placebo for SPI-62. • During Cohort 3, 11 participants received prednisolone 20 mg (100% dose adjustment from Cohort 1) with clofutriben (i.e., SPI-62) 6 mg. […]
# [6] = test system: patients with polymyalgia rheumatica (PMR); test: Clinical trial in PMR: circulating cell counts (lymphoid lineages by quantitative PCR; monocytes, neutrophils, platelets); assay type: in vivo, human
# Procedure: as §1, §3
# FIGS. 1-26 compare the change from baseline during two weeks of treatment with 10 mg prednisolone and placebo (PRL 10), 10 mg prednisolone and 6 mg clofutriben (PRL10 CLO6), 15 mg prednisolone and 6 mg clofutriben (PRL15 CLO6), 20 mg prednisolone and 6 mg clofutriben (PRL20 CLO6), and 30 mg prednisolone and 6 mg clofutriben (PRL30 CLO6). The central horizontal line of each diamond represents the mean of the observed data. The top and bottom vertices represent the 95% confidence interval of the mean. […]
# Counts of several circulating lymphoid cell types were determined by quantitative PCR for lineage-specific DNA methylation patterns. […]
# [7] = prior trials, participants did not receive GCs; cited from earlier work
# healthy adults = settings: dexamethasone 3 mg, 5 days; cited from earlier work
# [8] = test system: patients with polymyalgia rheumatica (PMR); test: Clinical trial in polymyalgia rheumatica: PMR disease control, adverse events of PMR aggravated and relapse (Criterion 1); assay type: in vivo, human; settings: 2 weeks daily treatment
# Procedure: as §1
# as §2, with “aggravated. Those two participants' data are represented in the Figures in the PRL15 CLO6 regimen.” for “aggravated.”
# [9] = PMR patients, change from baseline after 2 weeks daily treatment
# [10] = co-administration with prednisolone at any prednisolone dose, 2 weeks
# [11] = patients receiving prednisolone, relative to placebo
# T1 sequence (P28845 whole entry): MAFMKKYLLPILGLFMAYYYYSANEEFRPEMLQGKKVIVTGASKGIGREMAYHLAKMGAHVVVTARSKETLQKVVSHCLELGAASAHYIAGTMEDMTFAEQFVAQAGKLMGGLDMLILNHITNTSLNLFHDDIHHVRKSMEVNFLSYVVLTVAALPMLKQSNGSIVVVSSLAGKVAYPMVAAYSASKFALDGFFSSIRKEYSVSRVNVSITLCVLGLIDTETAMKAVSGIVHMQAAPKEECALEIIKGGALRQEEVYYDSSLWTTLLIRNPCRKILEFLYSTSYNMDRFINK
smiles,measurement,setting,value
"Cn1c(-c2ccc(C(N)=O)cc2F)nnc1C(C)(C)Oc1c(F)cc(Cl)cc1F [SPI-62, 4-(5-(2-(4-chloro-2,6-difluorophenoxy)propan-2-yl)-4-methyl-4H-1,2,4-triazol-3-yl)-3-fluorobenzamide]",fibrinogen (PF) level,[1],increased
same,HbA1c,[2],clinically meaningful decrease
same,hepatic HSD-1 inhibition after washout,hepatic HSD-1; 4 weeks after the last dose of SPI-62,Substantial hepatic HSD-1 inhibition
same,hepatic HSD-1 inhibition,hepatic HSD-1; after 2 weeks of prednisolone 10-30 mg + clofutriben 6 mg,full hepatic HSD-1 inhibition
same,"urinary ratio (tetrahydrocortisol+allotetrahydrocortisol)/tetrahydrocortisone, mean value",hepatic HSD-1; morning spot urine after 2 weeks of prednisolone 10-30 mg + clofutriben 6 mg,≤ 0.2
same,HOMA-IR,[3]; [9],not sensitive
same,HbA1c,[3]; [9],not sensitive; also recorded: close to zero
same,activated partial thromboplastin time (APTT),[3]; [9],improve
same,bone formation biomarker BSAP,[3]; [9],low sensitivity
same,bone formation biomarker P1NP,[3]; [9],increases
same,bone formation biomarker osteocalcin (OC),[3]; [9],increases
same,bone resorption biomarker CTX,[3]; [9],decreases
same,morning serum cortisol,"[3]; PMR patients, change from baseline after 2 weeks daily treatment, compared to placebo",increase
same,Prothrombin International Normalized Ratio (INR),[3]; [10],not observed to be sensitive
same,Prothrombin Time (PT),[3]; [10],not observed to be sensitive
same,plasma ACTH,"[3]; patients receiving prednisolone, clofutriben compared to placebo",increase
same,DHEA-S,[3]; [11],"increase, within or close to the reference range"
same,testosterone,[3]; [11],"increase, within or close to the reference range"
same,hypothalamic-pituitary-adrenal (HPA) axis,[3]; patients that received prednisolone,de-repression
same,IL-1 receptor antagonist (IL-1RA) level,[4],did not show sensitivity to SPI-62
same,granulocyte colony stimulating factor (G-CSF) level,[4],did not show sensitivity to SPI-62
same,interferon gamma (IFNγ) level,[4],did not show sensitivity to SPI-62
same,half-life,[5],28 to 42 days
same,monocyte count,[6]; [9],anticipated increases
same,neutrophil count,[6]; [9],anticipated increases
same,platelet count,[6]; [9],anticipated increases
same,"counts of circulating lymphoid cell types (B, IL-6R+, memory B, CD3+T, Th17, Treg)","[6]; SPI-62 6 mg co-administered with prednisolone, 2 weeks","decreases of all counted lineages, which were not fully ameliorated by prednisolone dose adjustment"
same,effect on ECG heart rate,[7],No effect
C[C@@H]1C[C@H]2[C@@H]3CCC4=CC(=O)C=C[C@]4(C)[C@@]3(F)[C@@H](O)C[C@]2(C)[C@@]1(O)C(=O)CO [dexamethasone],ECG heart rate decrease,healthy adults,approximately 12 bpm
same,HDL cholesterol,healthy adults,clinically meaningful increase
same,LDL cholesterol,healthy adults,not particularly sensitive
same,triglycerides,healthy adults,not particularly sensitive
"C[C@]12C=CC(=O)C=C1CC[C@@H]1[C@@H]2[C@@H](O)C[C@@]2(C)[C@H]1CC[C@]2(O)C(=O)CO [prednisolone, reference compound]",HbA1c,[3]; [9],decrease
same,LDL cholesterol,[3]; [9],encompassed zero
same,cholesterol,[3]; [9],encompassed zero
same,triglycerides,[3]; [9],encompassed zero
same,incidence of adverse events of PMR aggravated,[8]; participants with event/participants,0/50
same,PMR relapse (increase of PMR symptoms or disease activity such that a prednisolone dose increase was indicated),[8]; participants with relapse/participants,0/50
